Laboratory results: article PMC6100568, “Novel Uridine Glycoconjugates, Derivatives of 4-Aminophenyl 1-Thioglycosides, as Potential Antiviral Compounds” (Molecules : A Journal of Synthetic Chemistry and Natural …, 2018)
Entries after “also recorded” stand apart in the source; their conditions may differ. Like-named read-outs stand apart in the source and are kept apart here.

Assays:
[1] = MTT cell viability assay in non-infected Huh-7.5 cells; details: human
[2] = system: HCVcc (Jc1/JFH genotype 2a); test: HCVcc pseudo-plaque reduction assay (IPMA) in Huh-7.5 cells; details: for SI (CC50/IC50): HCV (Huh-7.5 cells); for IC50: Hepatitis C virus, Huh7.5
[3] = system: classical swine fever virus (CSFV); test: microbe, parasite or virus in culture
[4] = in vitro; details: swine
[5] = system: classical swine fever virus (CSFV)
[6] = target: T1, β-1,4GalT (Bos taurus, UniProt P08037); test: Bovine milk β-1,4GalT I assay (RP-HPLC, fluorescence); type: biochemical; details: for ability to inhibit β-1,4GalT activity: 0.8 mM
T1 construct: purchased; host or cells: bovine milk
T1 sequence (P08037 78-402 limits assumed): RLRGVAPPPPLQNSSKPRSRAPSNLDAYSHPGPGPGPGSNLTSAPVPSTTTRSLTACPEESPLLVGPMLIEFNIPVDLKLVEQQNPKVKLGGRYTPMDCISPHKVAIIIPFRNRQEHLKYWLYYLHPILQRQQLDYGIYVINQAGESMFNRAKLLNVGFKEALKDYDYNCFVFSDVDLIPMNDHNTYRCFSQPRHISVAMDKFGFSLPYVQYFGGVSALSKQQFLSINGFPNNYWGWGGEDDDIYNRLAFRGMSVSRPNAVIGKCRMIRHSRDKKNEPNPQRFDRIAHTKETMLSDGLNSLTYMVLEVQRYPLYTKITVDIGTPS

[7] = system: swine kidney (SK6) cells
[8] = system: classical swine fever virus (CSFV); details: cited from earlier work
[9] = system: viral genome replication; details: cited from earlier work
[10] = system: Huh-7.5 cells; details: cited from earlier work
[11] = system: swine kidney (SK6) cells; details: cited from earlier work
[12] = system: HCVcc (Jc1/JFH genotype 2a); details: cited from earlier work
[13] = system: Huh7-J17 cells; details: human
[14] = system: Huh-7.5 cells; test: MTT cell viability assay in non-infected Huh-7.5 cells; details: concentration reducing cell viability by 50%, mean ± S.D.
[15] = system: HCV replication (Huh7-J17 replicon); test: HCV replicon Huh7-J17 luciferase assay; type: cell-based; details: Hepatitis C virus; Huh7-J17 replicon cells, 72 h; read-out: IC50 (inhibition of HCV RNA replication, luciferase activity)
[16] = system: HCVcc genotype 2a JFH-1 strain; test: SEAP reporter assay in Huh7-J20 cells, three infection models (time-of-drug addition); type: cell-based, hepatitis C virus; details: SEAP level; for effect on virus entry (Model 1): 1 h pre-treatment + 3 h infection with compound, then 72 h without; for antiviral activity in post-viral entry model (Model 3): compound added after 3 h infection for 72 h; for antiviral activity in full life cycle (Model 2): compound present before, during and 72 h after infection
[17] = system: HCV viral RNA (NS5B gene); type: cell-based, hepatitis C virus
[18] = in vitro; details: human

Compound	CC50 [1]	SI (CC50/IC50) [2]	IC50 [2]	IC50 [3]	CC50 [4]	SI (CC50/IC50) [5]	further results
CC(=O)OC[C@H]1O[C@@H](Sc2ccc(NC(=O)[C@H]3O[C@@H](n4ccc(=O)[nH]c4=O)[C@@H]4OC(C)(C)O[C@@H]43)cc2)[C@H](OC(C)=O)[C@@H](OC(C)=O)[C@@H]1OC(C)=O [Compound 10]	258 ± 6.2 µM	1.7	154 ± 2.8 µM	149 ± 6.1 µM	326 ± 11.2 µM	2.2	–
O=C(Nc1ccc(S[C@@H]2O[C@H](CO)[C@H](O)[C@H](O)[C@H]2O)cc1)[C@H]1O[C@@H](n2ccc(=O)[nH]c2=O)[C@H](O)[C@@H]1O [Compound 15]	460 ± 9.3 µM	1.0	454 ± 9.8 µM	257 ± 6.9 µM	278 ± 4.3 µM	1.1	ability to inhibit β-1,4GalT activity [6]: demonstrated the ability of β-1,4GalT inhibition; reduction of enzyme activity ([6]; maximum test concentration of 0.8 mM): 10%
O=C(Nc1ccc(S[C@@H]2O[C@H](CO)[C@@H](O)[C@H](O)[C@H]2O)cc1)[C@H]1O[C@@H](n2ccc(=O)[nH]c2=O)[C@H](O)[C@@H]1O [Compound 14]	> 475 µM	>1.1	444 ± 12.4 µM	241 ± 9.2 µM	256 µM	1.1	CC50 ([7]; swine): 265 ± 8.6 µM; ability to inhibit β-1,4GalT activity [6]: demonstrated the ability of β-1,4GalT inhibition; also recorded: able to inhibit; IC50 ([6]; inhibitor 0.1–0.8 mM, UDP-Gal donor, esculine acceptor): 330 µM
CC(=O)OC[C@H]1O[C@@H](Sc2ccc(NC(=O)[C@H]3O[C@@H](n4ccc(=O)[nH]c4=O)[C@H](O[Si](C)(C)C(C)(C)C)[C@@H]3O[Si](C)(C)C(C)(C)C)cn2)[C@H](OC(C)=O)[C@@H](OC(C)=O)[C@@H]1OC(C)=O [I]	–	–	–	–	–	–	IC50 [8]: 3 ± 0.1 µM; SI (CC50/IC50) [8]: 28.7; reduction of viral genome replication [9]: up to 90%; CC50 [10]: 135 ± 2.4 µM; CC50 [11]: 86 ± 2.4 µM; IC50 [12]: 7 ± 0.7 µM; SI (CC50/IC50) [12]: 19.3
CC(C)OC(=O)[C@H](C)N[P@](=O)(OC[C@H]1O[C@@H](n2ccc(=O)[nH]c2=O)[C@](C)(F)[C@@H]1O)Oc1ccccc1 [SOFOSBUVIR, sofosbuvir, reference compound]	–	119.2	0.26 ± 0.02 µM	–	–	–	CC50 [13]: 23.5 µM; CC50 [14]: 31 ± 1.2 µM; IC50 [15]: 0.028 µM; effect on virus entry (Model 1) [16]: no effect on virus entry; antiviral activity in post-viral entry model (Model 3) [16]: exerts its antiviral activity effect; antiviral activity in full life cycle (Model 2) [16]: exerts its antiviral activity effect
CC(=O)OC[C@H]1O[C@@H](Sc2ccc(NC(=O)CCC(=O)OC[C@H]3O[C@@H](n4ccc(=O)[nH]c4=O)[C@H](O[Si](C)(C)C(C)(C)C)[C@@H]3O[Si](C)(C)C(C)(C)C)cc2)[C@H](OC(C)=O)[C@@H](OC(C)=O)[C@H]1OC(C)=O [Compound 9]	257 ± 5.7 µM	52.4	4.9 ± 0.3 µM	4.2 ± 0.5 µM	124 ± 6.8 µM	29.5	amount of viral RNA (NS5B RT-PCR) [17]: significant dose-dependent inhibition; CC50 [18]: 133 µM; IC50 [15]: 4.18 µM; inhibition of viral HCV replication (pseudo-plaques) ([2]; Huh-7.5 cells, 4–10 µM, Figure 2): dose-dependent inhibition; effect on virus entry (Model 1) [16]: none of the tested compounds targeted virus entry; also recorded: neither compound affected viral entry; antiviral activity in post-viral entry model (Model 3) [16]: strong antiviral activity; antiviral activity in full life cycle (Model 2) [16]: strong antiviral activity; inhibition of CSFV propagation (size and number of pseudo-plaques) [5]: dose-dependent inhibition
CC(=O)OC[C@H]1O[C@@H](Sc2ccc(NC(=O)[C@H]3O[C@@H](n4ccc(=O)[nH]c4=O)[C@H](O[Si](C)(C)C(C)(C)C)[C@@H]3O[Si](C)(C)C(C)(C)C)cc2)[C@H](OC(C)=O)[C@@H](OC(C)=O)[C@@H]1OC(C)=O [Compound 12]	270 ± 2.9 µM	20.0	13.5 ± 0.7 µM	4 ± 0.1 µM	56 ± 4.3 µM	–	cytotoxicity in words [7]: relatively toxic; amount of viral RNA (NS5B RT-PCR) [17]: significant dose-dependent inhibition; CC50 [18]: 130 µM; IC50 [15]: 4.24 µM; effect on virus entry (Model 1) [16]: none of the tested compounds targeted virus entry; also recorded: neither compound affected viral entry; antiviral activity in post-viral entry model (Model 3) [16]: strong antiviral activity; antiviral activity in full life cycle (Model 2) [16]: strong antiviral activity
CC(=O)OC[C@H]1O[C@@H](Sc2ccc(NC(=O)[C@H]3O[C@@H](n4ccc(=O)[nH]c4=O)[C@@H]4OC(C)(C)O[C@@H]43)cc2)[C@H](OC(C)=O)[C@@H](OC(C)=O)[C@H]1OC(C)=O [Compound 11]	272 ± 4.5 µM	1.6	167 ± 3.1 µM	217 ± 3.9 µM	340 ± 9.1 µM	1.6	–
CC(=O)OC[C@H]1O[C@@H](Sc2ccc(NC(=O)CCC(=O)OC[C@H]3O[C@@H](n4ccc(=O)[nH]c4=O)[C@@H]4OC(C)(C)O[C@@H]43)cc2)[C@H](OC(C)=O)[C@@H](OC(C)=O)[C@@H]1OC(C)=O [Compound 7]	399 ± 11.4 µM	1.4	281 ± 4.7 µM	97 ± 2 µM	103 ± 5.9 µM	1.1	–
CC(=O)OC[C@H]1O[C@@H](Sc2ccc(NC(=O)[C@H]3O[C@@H](n4ccc(=O)[nH]c4=O)[C@H](O[Si](C)(C)C(C)(C)C)[C@@H]3O[Si](C)(C)C(C)(C)C)cn2)[C@H](OC(C)=O)[C@@H](OC(C)=O)[C@H]1OC(C)=O [II]	–	–	–	–	–	–	IC50 [8]: 6 ± 0.4 µM; SI (CC50/IC50) [8]: 25.2; reduction of viral genome replication [9]: up to 90%; CC50 [10]: 173 ± 3.2 µM; CC50 [11]: 151 ± 3.1 µM; IC50 [12]: 7 ± 0.4 µM; SI (CC50/IC50) [12]: 24.7
CC(=O)OC[C@H]1O[C@@H](Sc2ccc(NC(=O)CCC(=O)OC[C@H]3O[C@@H](n4ccc(=O)[nH]c4=O)[C@H](O[Si](C)(C)C(C)(C)C)[C@@H]3O[Si](C)(C)C(C)(C)C)cc2)[C@H](OC(C)=O)[C@@H](OC(C)=O)[C@@H]1OC(C)=O [Compound 8]	16 ± 1.1 µM	4	4 ± 0.2 µM	4.5 ± 0.3 µM	42 ± 1.9 µM	9.3	cytotoxicity in words [7]: relatively toxic
CC(=O)OC[C@H]1O[C@@H](Sc2ccc(NC(=O)[C@H]3O[C@@H](n4ccc(=O)[nH]c4=O)[C@H](O[Si](C)(C)C(C)(C)C)[C@@H]3O[Si](C)(C)C(C)(C)C)cc2)[C@H](OC(C)=O)[C@@H](OC(C)=O)[C@H]1OC(C)=O [Compound 13]	14 ± 0.9 µM	1.9	7.4 ± 0.2 µM	25 ± 0.9 µM	49 ± 3.5 µM	2.0	cytotoxicity in words [7]: relatively toxic
